The source of these data is patent US8076348B2, “Acylguanidine derivative or salt thereof” (Astellas Pharma Inc., priority 2005, dated 2011).

pKi: −log10 of the molar value. A value given as a limit tells only on which side of the number the result lay.

One assay concerns Hartley male guinea pigs. Briefly: Preventive effect in guinea pig migraine model (5-HT-induced dura mater protein leakage). In kind it is in vivo. To be noted: for minimum amount showing the maximum drug efficacy / dose at which the leaked protein quantity-reducing action was shown / lowering of leaked protein quantity to the standard value when the dose was increased: intravenous; for dose at which the leaked protein quantity-reducing action was shown: 5-HT-induced leakage; for lowering of leaked protein quantity to the standard value when the dose was increased: RS-127445 3 to 10 mg/kg, SB-269970 10 to 30 mg/kg. Here is the method:
Test Method (5) Preventive Effect in Guinea Pig Migraine Model
This test system evaluates the migraine-preventive effect by measuring the amount of this leaked protein in the presence of a compound to be tested and was carried out by partially modifying the method described by Rachel A. Spokes and Vicki C. Middlefell in “European Journal of Pharmacology”, (Holland), 1995, vol. 281, p. 75-79.
Hartley male guinea pigs (250 to 350 g) were anesthetized by the intraperitoneal administration (i.p.) of urethane (1.5 g/kg). By applying a simple canulation to a latent vein, 50 mg/kg of a fluorescent protein (FITC-BSA) was intravenously administered (i.v.) and, 5 minutes thereafter, physiological saline or 1 μmol/ml/kg of 5-HT was intravenously administered. Perfusion was carried out with physiological saline 15 minutes thereafter and blood was washed out. […] By detaching the skull, the dura mater was extracted and incubated in an Eppendorf tube at 37° C. for 16 hours in the presence of physiological saline adjusted to pH 11. By carrying out a centrifugal operation, the supernatant was dispensed into a plate. The fluorescence intensity was measured using a fluorescence plate reader (excitation wavelength 485 nm, […] 530 nm). By weighing the dura mater weight, the fluorescence intensity per mg dura mater protein was calculated.
The values of fluorescence intensity measured at the time of the administration and non-administration of each compound are shown in FIG. 4 to FIG. 7.

Assay [1] addresses T1, 5-HT2B receptor (Homo sapiens, UniProt P41595). To be noted: literature value; cited from earlier work.
A further assay relates to male Wistar rats. Briefly: Inhibitory effect for defecation at the time of confined stress loading (rat confined stress defecation model). In kind it is in vivo. The settings on record: for action to suppress defecation (number of feces): 10 mg/kg p.o., compound used independently, feces counted 1 hour after stress loading, 10 mg/kg; for number of feces, significant difference in comparison with the non-administration group: rat, 1, 3 and 10 mg/kg administration groups, N=10. Here is the method: Test Method (4) Inhibitory Effect for Defecation at the Time of Confined Stress Loading
The IBS-treating effect of the compound (I) of the present invention was evaluated using a method in which a confined stress is applied to rats and the evacuation quantity is measured (cf. “The Journal of Pharmacology Experimental Therapeutics”, (USA), 1992, vol. 261, p. 297-303).
An agent to be tested was administered to male Wistar rats (body weight 250 to 320 g, 10 animals for each group) and a confined stress was applied thereto 30 minutes thereafter. A confining cage (trade name: KN-468, 265 mm in width×95 mm in length×200 mm in height, Natsume Seisakusho, Tokyo) was used in the confined stress loading, and the number of feces during 1 hour after the stress loading was counted.

For another assay, the target named is T2, human 5-HT7 receptor (Homo sapiens, UniProt P34969).
T2 construct: expressed in transfected cells; host or cells: CHO cells (membrane sample)
T2 sequence (P34969 whole entry): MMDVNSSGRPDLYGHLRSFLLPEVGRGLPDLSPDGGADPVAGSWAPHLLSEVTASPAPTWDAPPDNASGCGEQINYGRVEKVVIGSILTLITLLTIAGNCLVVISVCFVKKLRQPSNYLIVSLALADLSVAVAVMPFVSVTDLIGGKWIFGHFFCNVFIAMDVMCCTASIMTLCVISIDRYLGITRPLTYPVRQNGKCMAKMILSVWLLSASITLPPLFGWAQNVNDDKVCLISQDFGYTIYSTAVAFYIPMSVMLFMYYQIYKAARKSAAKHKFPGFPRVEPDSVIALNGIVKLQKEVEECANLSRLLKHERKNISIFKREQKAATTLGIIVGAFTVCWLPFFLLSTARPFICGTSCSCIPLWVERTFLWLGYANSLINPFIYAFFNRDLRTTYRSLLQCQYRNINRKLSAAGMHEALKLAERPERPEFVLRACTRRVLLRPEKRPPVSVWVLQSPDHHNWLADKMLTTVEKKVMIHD
Put plainly: 5-HT7 receptor binding test. The settings on record: [3H] 5-HT, human 5-HT7 receptor expressing CHO cell membrane. As to the method: Test Method (2) 5-HT7 Receptor Binding Test (i) Membrane Sample Preparation
Cultured human 5-HT7 receptor expressing CHO cells were washed PBS(−). The cells were peeled off using a scraper in the presence of PBS(−), and the cells were recovered by a centrifugal treatment (1,000 rpm, 10 min, 4° C.). In the presence of 5 mM Tris-HCl (pH 7.4) buffer, these were homogenized using a homogenizer (registered trademark: Polytron (PTA 10-TS)) and subjected to a centrifugal treatment (40,000×g, 10 min, 4° C.). In the presence of 50 mM Tris-HCl (pH 7.4) buffer, these were suspended using a glass-Teflon (registered trademark) homogenizer. By carrying out a centrifugal treatment (40,000×g, 10 min, 4° C.), these were suspended in 50 mM Tris-HCl (pH 7.4) and stored at −80° C.
(§1) (ii) Receptor Binding Test
(§2) A total volume of 500 μl containing 50 mM Tris-HCl, 4 mM CaCl2 (pH 7.4) buffer, the human 5-HT7 receptor expressing CHO cell membrane sample and a radio ligand [^3H] 5-HT (3.40 TBq/mmol) was incubated at 25° C. for 1 hour. The compound was dissolved in 100% DMSO and diluted to respective concentrations. Nonspecific binding was regarded as the binding quantity in the presence of 10 μM metergoline, and a result of subtracting the nonspecific binding quantity from the total binding quantity was regarded as the specific binding quantity. By adding 4 ml of 50 mM Tris-HCl buffer (pH 7.4), filtered under a reduced pressure trough a GF/B glass filter, and the filter was washed with the same buffer (4 ml×3). The glass filter was soaked in 5 ml of a liquid scintillator (trade name: Aquasol-2), and the radioactivity quantity was measured using a liquid scintillation counter.

For assay [2], the target named is T1, 5-HT2B receptor. Briefly: 5-HT2B receptor binding test. On the set-up: expressed in transfected cells; host or cells: HEK293-EBNA cells (membrane sample). The settings on record: [3H] Mesulergine, human 5-HT2B receptor expressing HEK293-EBNA cell membrane. Here is the method: Test Method (1) 5-HT2B Receptor Binding Test
(i) Membrane Sample Preparation
Cultured human 5-HT2B receptor-expressing HEK293-EBNA cells were washed with a phosphate buffer (PBS)(−). The cells were peeled off using a scraper in the presence of PBS(−), and the cells were recovered by a centrifugal treatment (1,000 rpm, 10 min, 4° C.). In the presence of 5 mM tris-hydrochloric acid (Tris-HCl) (pH 7.4) buffer, these were homogenized using a homogenizer (registered trademark: Polytron (PTA 10-TS)) and subjected to a centrifugal treatment (40,000×g, 10 min, 4° C.). In the presence of 50 mM Tris-HCl (pH 7.4) buffer, these were suspended using a glass-Teflon (registered trademark) homogenizer. By carrying out a centrifugal treatment (40,000×g, 10 min, 4° C.), these were suspended in 50 mM Tris-HCl (pH 7.4) and stored at −80° C.
as §1
as §2, with “Tris-HCl, 4-mM-CaCl2” for “Tris-HCl, 4 mM CaCl2”, “human 5-HT2B” for “human 5-HT7”, “expressing HEK293-EBNA” for “expressing CHO”, “[^3H] Mesulergine (3.1 TBq/mmol);” for “[^3H] 5-HT (3.40 TBq/mmol)”, “of 1” for “of 10”, “μM ritanserin,” for “μM metergoline,”

T1 sequence (P41595 whole entry): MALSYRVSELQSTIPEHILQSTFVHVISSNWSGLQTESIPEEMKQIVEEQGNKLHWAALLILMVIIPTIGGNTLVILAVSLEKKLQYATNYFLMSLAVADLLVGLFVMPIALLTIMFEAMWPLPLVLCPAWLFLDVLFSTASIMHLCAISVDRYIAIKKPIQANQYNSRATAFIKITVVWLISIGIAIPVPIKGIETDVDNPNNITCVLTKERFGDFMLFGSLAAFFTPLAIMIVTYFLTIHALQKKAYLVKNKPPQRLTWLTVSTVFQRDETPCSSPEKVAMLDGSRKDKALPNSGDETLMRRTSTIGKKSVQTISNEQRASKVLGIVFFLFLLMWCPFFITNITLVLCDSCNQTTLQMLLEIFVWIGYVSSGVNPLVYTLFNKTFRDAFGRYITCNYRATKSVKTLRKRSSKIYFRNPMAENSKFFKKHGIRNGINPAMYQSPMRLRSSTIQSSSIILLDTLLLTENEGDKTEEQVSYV

With `CC(C)c1cc(-c2ccc(F)c3ccccc23)nc(N)n1` [RS-127445, 2-amino-4-(4-fluoronaphth-1-yl)-6-isopropylpyrimidine], in the assay on Hartley male guinea pigs, the “minimum amount showing the maximum drug efficacy” value is given as 3 mg/kg, the “dose at which the leaked protein quantity-reducing action was shown” value is on record as 3 mg/kg and the “lowering of leaked protein quantity to the standard value when the dose was increased” value is given as “did not lower it to the standard value”. Also, the “5-HT2B receptor-selective against 5-HT1A, 5-HT1B, 5-HT2A, 5-HT2C, 5-HT3, 5-HT6, 5-HT7, α1, M1, D2 and the like receptors” value at 5-HT2B receptor [1] is on record as at least 1000 times. The “action to suppress defecation (number of feces)” value in the assay with male Wistar rats (rat) is “did not show the action to suppress defecation”. In addition, in the assay on male Wistar rats, the “number of feces, significant difference in comparison with the non-administration group” value is on record as “Significant difference was not found”.

As for `CC(C)n1c2ccccc2c2ccc(C(=O)N=C(N)N)cc21` [Example 1, N-(diaminomethylene)-9-isopropyl-9H-carbazole-2-carboxamide], in the assay on Hartley male guinea pigs (30 mg/kg oral administration), the leaked protein quantity result is recorded as “almost completely suppressed the leaked protein quantity”. In addition, the results for the pKi on human 5-HT7 receptor and at 5-HT2B receptor [2] were 9.19 and 8.34, respectively.

In the case of `CC1CCN(CC[C@H]2CCCN2S(=O)(=O)c2cccc(O)c2)CC1` [SB-269970, (R)-3-(2-(2-(4-methylpiperidine-1-yl)ethyl)pyrrolidine-1-sulfonyl)phenol], in the assay with Hartley male guinea pigs, the “minimum amount showing the maximum drug efficacy” value amounted to 10 mg/kg, the “dose at which the leaked protein quantity-reducing action was shown” value was 10 mg/kg and the “lowering of leaked protein quantity to the standard value when the dose was increased” value is listed as “did not lower the leaked protein quantity to the standard value”. Besides, the “action to suppress defecation (number of feces)” value in the assay on male Wistar rats (rat) was “did not show the action to suppress defecation”. Also, the “number of feces, significant difference in comparison with the non-administration group” value in the assay on male Wistar rats is “Significant difference was not found”.

As to `CC(C)N1c2ccccc2Oc2ccc(C(=O)N=C(N)N)cc21` [Example 66, N-(diaminomethylene)-10-isopropyl-10H-phenoxazine-2-carboxamide], the pKi at human 5-HT7 receptor was 8.59; at 5-HT2B receptor [2] it was 9.59.

As for `NC(N)=NC(=O)c1ccc2c(c1)C1(CCCO1)c1ccsc1-2` (centres unmarked) [Example 84, N-(diaminomethylene)-4,5-dihydro-3H-spiro[furan-2,4′-indeno[1,2-b]thiophene]-6′-carboxamide], the pKi is 8.60 at human 5-HT7 receptor and 8.89 at 5-HT2B receptor [2]. In addition, in the assay on male Wistar rats (po, rat, p.o., read-out: ED50 (50% effective dose), suppressing action on defecation), the ED50 worked out at 0.72 mg/kg.

In the case of `COC1(C)c2cc(C(=O)N=C(N)N)ccc2-c2sccc21` (centres unmarked) [Example 83], the pKi on human 5-HT7 receptor is 9.00; at 5-HT2B receptor [2], 8.82.

For the molecule `NC(N)=NC(=O)c1ccc2c(c1)C1(SCCS1)c1ccsc1-2` [Example 81, N-(diaminomethylene)spiro[1,3-dithiolan-2,4′-indeno[1,2-b]thiophene]-6′-carboxamide], the pKi on human 5-HT7 receptor is 9.11; at 5-HT2B receptor [2], 9.08.

As usually defined, the pKi is −log10 of the Ki, conventionally taken in molar units. Lower therefore signals a high Ki. Broadly, the ED50 is the dose that gives a 50% effect, or the effect in half of the subjects.
